Laboratory results reported in patent publication US4464385A, “Treatment of diabetic complications with hydantoins” (Alcon Laboratories, Inc., priority 1982, dated 1984).
pIC50: −log10 of the molar value. Entries after “also recorded” stand apart in the source; their conditions may differ.

Columns and labels:
[1] = molecular target: T1, aldose reductase enzyme obtained from rat lens (Rattus norvegicus, UniProt P07943); assay: Inhibition of partially purified aldose reductase from rat lens; assay type: biochemical; conditions: read-out: IC50 (concentration of drug that inhibits 50% of the enzyme activity)
T1 construct: partially purified aldose reductase enzyme obtained from rat lens; from tissue; host or cells: rat lens
Description: In every case the substrate employed was partially purified aldose reductase enzyme obtained from rat lens or human placenta.

cataracts in rats = assay: Prevention or retardation of cataracts in galactose-fed rats; assay type: in vivo, rat; conditions: for suppression of the formation of nuclear cataracts: 30 days; for % of Total Eyes, + (vacuole) / % of Total Eyes, - (Normal) / % of Total Eyes, N (nuclear cataract) / % of Total Eyes, S (snowflake) / Number of Eyes Observed, + (vacuole) / Number of Eyes Observed, - (Normal) / Number of Eyes Observed, N (nuclear cataract) / Number of Eyes Observed, S (snowflake) / Number of Eyes Observed, ±: 30% galactose diet, A,C,E 0.0025%, B,D 0.01%
Outline: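 Twelve rats per treatment, after two days on chow, were fed compound/diet mixtures ad libitum from Study Day 1 for thirty days; the 0.01% level was designed for 20 mg/kg/day. Cataracts were scored per eye using ophthalmoscope and/or penlight.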

dl-spiro-(6-methylthio-chroman-4,4'-imidazolidine)-2',5'-dione
pIC50 [1]: 6.57
suppression of the formation of nuclear cataracts (cataracts in rats; 0.0025% in diet): greater than 80%
time of suppression, time to vacuole formation (cataracts in rats; 0.01% in diet): 13.5 days
time to snowflake / retardation of cataract, versus Sarges 0.0025% d-6-fluoro (cataracts in rats; 0.01% in diet): not significantly different from the Sarges 0.0025% d-6-fluoro control; also recorded: retard the progress of cataract formation slightly better than the Sarges control; also recorded: surpassed the positive control
time to vacuole formation, versus Sarges 0.0025% d-6-fluoro (cataracts in rats; 0.01% in diet): statistically lower (p<0.05) than the Sarges standard
suppression of the formation of nuclear cataracts (cataracts in rats; 0.01% in diet): 100%
% of Total Eyes, + (vacuole) (cataracts in rats; Study Day 2): 0%
% of Total Eyes, - (Normal) (cataracts in rats; Study Day 2): 100.0%
% of Total Eyes, N (nuclear cataract) (cataracts in rats; Study Day 2): 0%
% of Total Eyes, S (snowflake) (cataracts in rats; Study Day 2): 0%
Number of Eyes Observed, + (vacuole) (cataracts in rats; Study Day 2): 0 eyes
Number of Eyes Observed, - (Normal) (cataracts in rats; Study Day 2): 24 eyes
Number of Eyes Observed, N (nuclear cataract) (cataracts in rats; Study Day 2): 0 eyes
Number of Eyes Observed, S (snowflake) (cataracts in rats; Study Day 2): 0 eyes
Number of Eyes Observed, ± (cataracts in rats; Study Day 2): 0 eyes
% of Total Eyes, + (vacuole) (cataracts in rats; Study Day 3): 0%
% of Total Eyes, - (Normal) (cataracts in rats; Study Day 3): 100.0%
% of Total Eyes, N (nuclear cataract) (cataracts in rats; Study Day 3): 0%
% of Total Eyes, S (snowflake) (cataracts in rats; Study Day 3): 0%
Number of Eyes Observed, + (vacuole) (cataracts in rats; Study Day 3): 0 eyes
Number of Eyes Observed, - (Normal) (cataracts in rats; Study Day 3): 24 eyes
Number of Eyes Observed, N (nuclear cataract) (cataracts in rats; Study Day 3): 0 eyes
Number of Eyes Observed, S (snowflake) (cataracts in rats; Study Day 3): 0 eyes
Number of Eyes Observed, ± (cataracts in rats; Study Day 3): 0 eyes
% of Total Eyes, + (vacuole) (cataracts in rats; Study Day 4): 0%
% of Total Eyes, - (Normal) (cataracts in rats; Study Day 4): 16.7%
% of Total Eyes, N (nuclear cataract) (cataracts in rats; Study Day 4): 0%
% of Total Eyes, S (snowflake) (cataracts in rats; Study Day 4): 0%
Number of Eyes Observed, + (vacuole) (cataracts in rats; Study Day 4): 0 eyes
Number of Eyes Observed, - (Normal) (cataracts in rats; Study Day 4): 4 eyes
Number of Eyes Observed, N (nuclear cataract) (cataracts in rats; Study Day 4): 0 eyes
Number of Eyes Observed, S (snowflake) (cataracts in rats; Study Day 4): 0 eyes
Number of Eyes Observed, ± (cataracts in rats; Study Day 4): 20 eyes
% of Total Eyes, + (vacuole) (cataracts in rats; Study Day 5): 75.0%
% of Total Eyes, - (Normal) (cataracts in rats; Study Day 5): 0%
% of Total Eyes, N (nuclear cataract) (cataracts in rats; Study Day 5): 0%
% of Total Eyes, S (snowflake) (cataracts in rats; Study Day 5): 0%
Number of Eyes Observed, + (vacuole) (cataracts in rats; Study Day 5): 18 eyes
Number of Eyes Observed, - (Normal) (cataracts in rats; Study Day 5): 0 eyes
Number of Eyes Observed, N (nuclear cataract) (cataracts in rats; Study Day 5): 0 eyes
Number of Eyes Observed, S (snowflake) (cataracts in rats; Study Day 5): 0 eyes
Number of Eyes Observed, ± (cataracts in rats; Study Day 5): 6 eyes
% of Total Eyes, + (vacuole) (cataracts in rats; Study Day 6): 83.3%
% of Total Eyes, - (Normal) (cataracts in rats; Study Day 6): 0%
% of Total Eyes, N (nuclear cataract) (cataracts in rats; Study Day 6): 0%
% of Total Eyes, S (snowflake) (cataracts in rats; Study Day 6): 0%
Number of Eyes Observed, + (vacuole) (cataracts in rats; Study Day 6): 20 eyes
Number of Eyes Observed, - (Normal) (cataracts in rats; Study Day 6): 0 eyes
Number of Eyes Observed, N (nuclear cataract) (cataracts in rats; Study Day 6): 0 eyes
Number of Eyes Observed, S (snowflake) (cataracts in rats; Study Day 6): 0 eyes
Number of Eyes Observed, ± (cataracts in rats; Study Day 6): 4 eyes
% of Total Eyes, + (vacuole) (cataracts in rats; Study Day 8): 100.0%
% of Total Eyes, - (Normal) (cataracts in rats; Study Day 8): 0%
% of Total Eyes, N (nuclear cataract) (cataracts in rats; Study Day 8): 0%
% of Total Eyes, S (snowflake) (cataracts in rats; Study Day 8): 0%
Number of Eyes Observed, + (vacuole) (cataracts in rats; Study Day 8): 24 eyes
Number of Eyes Observed, - (Normal) (cataracts in rats; Study Day 8): 0 eyes
Number of Eyes Observed, N (nuclear cataract) (cataracts in rats; Study Day 8): 0 eyes
Number of Eyes Observed, S (snowflake) (cataracts in rats; Study Day 8): 0 eyes
Number of Eyes Observed, ± (cataracts in rats; Study Day 8): 0 eyes
% of Total Eyes, + (vacuole) (cataracts in rats; Study Day 10): 79.2%
% of Total Eyes, - (Normal) (cataracts in rats; Study Day 10): 0%
% of Total Eyes, N (nuclear cataract) (cataracts in rats; Study Day 10): 0%
% of Total Eyes, S (snowflake) (cataracts in rats; Study Day 10): 20.8%
Number of Eyes Observed, + (vacuole) (cataracts in rats; Study Day 10): 19 eyes
Number of Eyes Observed, - (Normal) (cataracts in rats; Study Day 10): 0 eyes
Number of Eyes Observed, N (nuclear cataract) (cataracts in rats; Study Day 10): 0 eyes
Number of Eyes Observed, S (snowflake) (cataracts in rats; Study Day 10): 5 eyes
Number of Eyes Observed, ± (cataracts in rats; Study Day 10): 0 eyes
% of Total Eyes, + (vacuole) (cataracts in rats; Study Day 12): 58.4%
% of Total Eyes, - (Normal) (cataracts in rats; Study Day 12): 0%
% of Total Eyes, N (nuclear cataract) (cataracts in rats; Study Day 12): 0%
% of Total Eyes, S (snowflake) (cataracts in rats; Study Day 12): 41.6%
Number of Eyes Observed, + (vacuole) (cataracts in rats; Study Day 12): 14 eyes
Number of Eyes Observed, - (Normal) (cataracts in rats; Study Day 12): 0 eyes
Number of Eyes Observed, N (nuclear cataract) (cataracts in rats; Study Day 12): 0 eyes
Number of Eyes Observed, S (snowflake) (cataracts in rats; Study Day 12): 10 eyes
Number of Eyes Observed, ± (cataracts in rats; Study Day 12): 0 eyes
% of Total Eyes, + (vacuole) (cataracts in rats; Study Day 14): 41.6%
% of Total Eyes, - (Normal) (cataracts in rats; Study Day 14): 0%
